{"source": "patent US20240358693A1", "about": "“METHODS OF TREATING PAIN” (Aisa Pharma, Inc., priority 2023, published 2024)", "system": "participants with SSc-RP", "assay": "Average duration of weekly RP attacks (minutes)", "type": "in vivo, human", "excerpt": "The absolute change in average duration of weekly RP attacks from baseline to the end of each dosing period was and will be a secondary outcome variable. The sponsor-developed participant-informed diary was and will be used to record data. Average duration of weekly RP attacks is defined as the total duration of RP attacks divided by total number of RP attacks within the last 7 days of each dosing period. Total duration of RP attacks during the last 7 days of screening period divided by the total number of RP attacks will be used as baseline for the analysis of all periods. The variable will be calculated similar to frequency data as before.", "key": {"[1]": {"details": "Cilnidipine 10 mg, n=1, Excluding Outliers, ITT Part A"}, "[2]": {"details": "Cilnidipine 10 mg, n=1, ITT Part A"}, "[3]": {"details": "Cilnidipine 10 mg, Baseline RCS subgroup 1 (unnamed), ITT Part A"}, "[4]": {"details": "Cilnidipine 10 mg, Excluding Outliers, Baseline RCS subgroup 1 (unnamed), ITT Part A"}, "[5]": {"details": "Cilnidipine 10 mg, Excluding Outliers, ITT Population - Part A"}, "[6]": {"details": "Cilnidipine 10 mg, Excluding Outliers, by Baseline RCS, subgroup 1, ITT Population - Part A"}, "[7]": {"details": "Cilnidipine 10 mg, by Baseline RCS, subgroup 1, ITT Population - Part A"}, "[8]": {"details": "Cilnidipine 20 mg, n=2, Excluding Outliers, ITT Part A"}, "[9]": {"details": "Cilnidipine 20 mg, n=2, ITT Part A"}, "[10]": {"details": "Cilnidipine 20 mg, Baseline RCS subgroup 1 (unnamed), ITT Part A"}, "[11]": {"details": "Cilnidipine 20 mg, Excluding Outliers, Baseline RCS subgroup 1 (unnamed), ITT Part A"}}}
{"smiles": "COCCOC(=O)C1=C(C)NC(C)=C(C(=O)OC/C=C/c2ccccc2)C1c1cccc([N+](=O)[O-])c1", "note": "(stereo not shown) [Cilnidipine, cilnidipine]", "values": [{"measurement": "Average Duration of Weekly Symptomatic RP Attacks, Change from Baseline, Mean", "setting": "[1]", "value": -16.74, "unit": "min"}, {"measurement": "Average Duration of Weekly Symptomatic RP Attacks, Change from Baseline, Median", "setting": "[1]", "value": -16.74, "unit": "min"}, {"measurement": "Average Duration of Weekly Symptomatic RP Attacks, Mean", "setting": "[1]", "value": 31.64, "unit": "min"}, {"measurement": "Average Duration of Weekly Symptomatic RP Attacks, Median", "setting": "[1]", "value": 31.64, "unit": "min"}, {"measurement": "Average Duration of Weekly Symptomatic RP Attacks, Percent Change from Baseline, Mean", "setting": "[1]", "value": "−34.60", "unit": "%"}, {"measurement": "Average Duration of Weekly Symptomatic RP Attacks, Percent Change from Baseline, Median", "setting": "[1]", "value": "−34.60", "unit": "%"}, {"measurement": "Average Duration of Weekly Symptomatic RP Attacks, Change from Baseline, Mean", "setting": "[2]", "value": -16.74, "unit": "min"}, {"measurement": "Average Duration of Weekly Symptomatic RP Attacks, Change from Baseline, Median", "setting": "[2]", "value": -16.74, "unit": "min"}, {"measurement": "Average Duration of Weekly Symptomatic RP Attacks, Mean", "setting": "[2]", "value": 31.64, "unit": "min"}, {"measurement": "Average Duration of Weekly Symptomatic RP Attacks, Median", "setting": "[2]", "value": 31.64, "unit": "min"}, {"measurement": "Average Duration of Weekly Symptomatic RP Attacks, Percent Change from Baseline, Mean", "setting": "[2]", "value": "−34.60", "unit": "%"}, {"measurement": "Average Duration of Weekly Symptomatic RP Attacks, Percent Change from Baseline, Median", "setting": "[2]", "value": "−34.60", "unit": "%"}, {"measurement": "Average Duration of Weekly Symptomatic RP Attacks, Change from Baseline, Mean", "setting": "[3]", "value": -16.74, "unit": "min"}, {"measurement": "Average Duration of Weekly Symptomatic RP Attacks, Change from Baseline, Median", "setting": "[3]", "value": -16.74, "unit": "min"}, {"measurement": "Average Duration of Weekly Symptomatic RP Attacks, Mean", "setting": "[3]", "value": 31.64, "unit": "min"}, {"measurement": "Average Duration of Weekly Symptomatic RP Attacks, Median", "setting": "[3]", "value": 31.64, "unit": "min"}, {"measurement": "Average Duration of Weekly Symptomatic RP Attacks, Percent Change from Baseline, Mean", "setting": "[3]", "value": "−34.60", "unit": "%"}, {"measurement": "Average Duration of Weekly Symptomatic RP Attacks, Percent Change from Baseline, Median", "setting": "[3]", "value": "−34.60", "unit": "%"}, {"measurement": "Average Duration of Weekly Symptomatic RP Attacks, Change from Baseline, Mean", "setting": "[4]", "value": -16.74, "unit": "min"}, {"measurement": "Average Duration of Weekly Symptomatic RP Attacks, Change from Baseline, Median", "setting": "[4]", "value": -16.74, "unit": "min"}, {"measurement": "Average Duration of Weekly Symptomatic RP Attacks, Mean", "setting": "[4]", "value": 31.64, "unit": "min"}, {"measurement": "Average Duration of Weekly Symptomatic RP Attacks, Median", "setting": "[4]", "value": 31.64, "unit": "min"}, {"measurement": "Average Duration of Weekly Symptomatic RP Attacks, Percent Change from Baseline, Mean", "setting": "[4]", "value": "−34.60", "unit": "%"}, {"measurement": "Average Duration of Weekly Symptomatic RP Attacks, Percent Change from Baseline, Median", "setting": "[4]", "value": "−34.60", "unit": "%"}, {"measurement": "Average Duration of Weekly RP Attacks (All Attacks) Change from Baseline, Mean", "setting": "[5]", "value": -8.48, "unit": "min"}, {"measurement": "Average Duration of Weekly RP Attacks (All Attacks) Change from Baseline, Median", "setting": "[5]", "value": -8.48, "unit": "min"}, {"measurement": "Average Duration of Weekly RP Attacks (All Attacks) Percent Change from Baseline, Mean", "setting": "[5]", "value": "−21.20", "unit": "%"}, {"measurement": "Average Duration of Weekly RP Attacks (All Attacks) Percent Change from Baseline, Median", "setting": "[5]", "value": "−21.20", "unit": "%"}, {"measurement": "Average Duration of Weekly RP Attacks (All Attacks), Mean", "setting": "[5]", "value": 31.52, "unit": "min"}, {"measurement": "Average Duration of Weekly RP Attacks (All Attacks), Median", "setting": "[5]", "value": 31.52, "unit": "min"}, {"measurement": "Average Duration of Weekly RP Attacks (All Attacks) Change from Baseline, Mean", "setting": "[6]", "value": -8.48, "unit": "min"}, {"measurement": "Average Duration of Weekly RP Attacks (All Attacks) Change from Baseline, Median", "setting": "[6]", "value": -8.48, "unit": "min"}, {"measurement": "Average Duration of Weekly RP Attacks (All Attacks) Percent Change from Baseline, Mean", "setting": "[6]", "value": "−21.20", "unit": "%"}, {"measurement": "Average Duration of Weekly RP Attacks (All Attacks) Percent Change from Baseline, Median", "setting": "[6]", "value": "−21.20", "unit": "%"}, {"measurement": "Average Duration of Weekly RP Attacks (All Attacks), Mean", "setting": "[6]", "value": 31.52, "unit": "min"}, {"measurement": "Average Duration of Weekly RP Attacks (All Attacks), Median", "setting": "[6]", "value": 31.52, "unit": "min"}, {"measurement": "Average Duration of Weekly RP Attacks (All Attacks) Change from Baseline, Mean", "setting": "Cilnidipine 10 mg, ITT Part A", "value": -8.48, "unit": "min"}, {"measurement": "Average Duration of Weekly RP Attacks (All Attacks) Change from Baseline, Median", "setting": "Cilnidipine 10 mg, ITT Part A", "value": -8.48, "unit": "min"}, {"measurement": "Average Duration of Weekly RP Attacks (All Attacks) Percent Change from Baseline, Mean", "setting": "Cilnidipine 10 mg, ITT Part A", "value": "−21.20", "unit": "%"}, {"measurement": "Average Duration of Weekly RP Attacks (All Attacks) Percent Change from Baseline, Median", "setting": "Cilnidipine 10 mg, ITT Part A", "value": "−21.20", "unit": "%"}, {"measurement": "Average Duration of Weekly RP Attacks (All Attacks), Mean", "setting": "Cilnidipine 10 mg, ITT Part A", "value": 31.52, "unit": "min"}, {"measurement": "Average Duration of Weekly RP Attacks (All Attacks), Median", "setting": "Cilnidipine 10 mg, ITT Part A", "value": 31.52, "unit": "min"}, {"measurement": "Average Duration of Weekly RP Attacks (All Attacks) Change from Baseline, Mean", "setting": "[7]", "value": -8.48, "unit": "min"}, {"measurement": "Average Duration of Weekly RP Attacks (All Attacks) Change from Baseline, Median", "setting": "[7]", "value": -8.48, "unit": "min"}, {"measurement": "Average Duration of Weekly RP Attacks (All Attacks) Percent Change from Baseline, Mean", "setting": "[7]", "value": "−21.20", "unit": "%"}, {"measurement": "Average Duration of Weekly RP Attacks (All Attacks) Percent Change from Baseline, Median", "setting": "[7]", "value": "−21.20", "unit": "%"}, {"measurement": "Average Duration of Weekly RP Attacks (All Attacks), Mean", "setting": "[7]", "value": 31.52, "unit": "min"}, {"measurement": "Average Duration of Weekly RP Attacks (All Attacks), Median", "setting": "[7]", "value": 31.52, "unit": "min"}, {"measurement": "Average Duration of Weekly Symptomatic RP Attacks, Change from Baseline, Mean", "setting": "[8]", "value": -3.13, "unit": "min"}, {"measurement": "Average Duration of Weekly Symptomatic RP Attacks, Change from Baseline, Median", "setting": "[8]", "value": -3.13, "unit": "min"}, {"measurement": "Average Duration of Weekly Symptomatic RP Attacks, Mean", "setting": "[8]", "value": 16.73, "unit": "min"}, {"measurement": "Average Duration of Weekly Symptomatic RP Attacks, Median", "setting": "[8]", "value": 16.73, "unit": "min"}, {"measurement": "Average Duration of Weekly Symptomatic RP Attacks, Percent Change from Baseline, Mean", "setting": "[8]", "value": "−31.05", "unit": "%"}, {"measurement": "Average Duration of Weekly Symptomatic RP Attacks, Percent Change from Baseline, Median", "setting": "[8]", "value": "−31.05", "unit": "%"}, {"measurement": "Average Duration of Weekly Symptomatic RP Attacks, Change from Baseline, Mean", "setting": "[9]", "value": -3.13, "unit": "min"}, {"measurement": "Average Duration of Weekly Symptomatic RP Attacks, Change from Baseline, Median", "setting": "[9]", "value": -3.13, "unit": "min"}, {"measurement": "Average Duration of Weekly Symptomatic RP Attacks, Mean", "setting": "[9]", "value": 16.73, "unit": "min"}, {"measurement": "Average Duration of Weekly Symptomatic RP Attacks, Median", "setting": "[9]", "value": 16.73, "unit": "min"}, {"measurement": "Average Duration of Weekly Symptomatic RP Attacks, Percent Change from Baseline, Mean", "setting": "[9]", "value": "−31.05", "unit": "%"}, {"measurement": "Average Duration of Weekly Symptomatic RP Attacks, Percent Change from Baseline, Median", "setting": "[9]", "value": "−31.05", "unit": "%"}, {"measurement": "Average Duration of Weekly Symptomatic RP Attacks, Change from Baseline, Mean", "setting": "[10]", "value": -3.13, "unit": "min"}, {"measurement": "Average Duration of Weekly Symptomatic RP Attacks, Change from Baseline, Median", "setting": "[10]", "value": -3.13, "unit": "min"}, {"measurement": "Average Duration of Weekly Symptomatic RP Attacks, Mean", "setting": "[10]", "value": 16.73, "unit": "min"}, {"measurement": "Average Duration of Weekly Symptomatic RP Attacks, Median", "setting": "[10]", "value": 16.73, "unit": "min"}, {"measurement": "Average Duration of Weekly Symptomatic RP Attacks, Percent Change from Baseline, Mean", "setting": "[10]", "value": "−31.05", "unit": "%"}, {"measurement": "Average Duration of Weekly Symptomatic RP Attacks, Percent Change from Baseline, Median", "setting": "[10]", "value": "−31.05", "unit": "%"}, {"measurement": "Average Duration of Weekly Symptomatic RP Attacks, Change from Baseline, Mean", "setting": "[11]", "value": -3.13, "unit": "min"}, {"measurement": "Average Duration of Weekly Symptomatic RP Attacks, Change from Baseline, Median", "setting": "[11]", "value": -3.13, "unit": "min"}, {"measurement": "Average Duration of Weekly Symptomatic RP Attacks, Mean", "setting": "[11]", "value": 16.73, "unit": "min"}, {"measurement": "Average Duration of Weekly Symptomatic RP Attacks, Median", "setting": "[11]", "value": 16.73, "unit": "min"}, {"measurement": "Average Duration of Weekly Symptomatic RP Attacks, Percent Change from Baseline, Mean", "setting": "[11]", "value": "−31.05", "unit": "%"}, {"measurement": "Average Duration of Weekly Symptomatic RP Attacks, Percent Change from Baseline, Median", "setting": "[11]", "value": "−31.05", "unit": "%"}, {"measurement": "Average Duration of Weekly RP Attacks (All Attacks) Change from Baseline, Mean", "setting": "Cilnidipine 20 mg, Excluding Outliers, ITT Population - Part A", "value": -1.09, "unit": "min"}]}
